The test system of one test is wild-type progesterone receptor (pSG5-Gal4-DBD-PR) and its mutants. In kind it is cell-based.
Settings: not given
Take `C[C@@H]1C[C@H]2[C@@H]3CCC4=CC(=O)C=C[C@]4(C)[C@@]3(F)[C@@H](O)C[C@]2(C)[C@@]1(O)C(=O)CO` [DEX, Dexamethasone]: the “activity in PR mutants as compared to wild-type PR” value was “lowered below DMSO control by most mutations”. In the case of `CC(=O)[C@H]1CC[C@H]2[C@@H]3CCC4=CC(=O)CC[C@]4(C)[C@H]3CC[C@]12C` [STR, Progesterone], the “activity in PR mutants as compared to wild-type PR” value is recorded as “lowered in all mutants”.

Staying with this test, now noted: HeLa, Gal4-DBD-PR LBD mutants; ligand 10 μM.
Turning to `C[C@]12CCC(=O)C=C1CC[C@@H]1[C@@H]2[C@@H](O)C[C@]2(C=O)[C@@H](C(=O)CO)CC[C@@H]12` [AS4, Aldosterone], the “activity in PR mutants as compared to wild-type PR, high ligand concentration” value is on record as “reduced activity”. For the compound `C[C@]12CCC(=O)C[C@@H]1CC[C@@H]1[C@@H]2CC[C@]2(C)[C@@H](O)CC[C@@H]12` [DHT, Dihydrotestosterone], the “activity in PR mutants as compared to wild-type PR, high ligand concentration” value was “reduced activity”. Same read-out and setting: the entry for `C[C@]12CCC(=O)C=C1CC[C@@H]1[C@@H]2[C@@H](O)C[C@@]2(C)[C@H]1CC[C@]2(O)C(=O)CO` [HCY, Cortisol] is “reduced activity”; for `C[C@]12C=CC(=O)C=C1CC[C@@H]1[C@@H]2C(=O)C[C@@]2(C)[C@H]1CC[C@]2(O)C(=O)CO` [PDN, Prednisone] it is “additional reduction”.

The values above are taken from PMC11151858 (RSC Chemical Biology, 2024).
